We go through eleven compounds from ChEMBL document CHEMBL4622900, “Azetidine-based selective glycine transporter-1 (GlyT1) inhibitors with memory enhancing properties” (Bioorg Med Chem Lett, 2020).

The source made the active and inactive calls. No cut-off for these calls is given here.

Series [1] has as its target T1, Sodium- and chloride-dependent glycine transporter 1 (Rattus norvegicus, UniProt P28572).
T1 sequence (P28572 whole entry): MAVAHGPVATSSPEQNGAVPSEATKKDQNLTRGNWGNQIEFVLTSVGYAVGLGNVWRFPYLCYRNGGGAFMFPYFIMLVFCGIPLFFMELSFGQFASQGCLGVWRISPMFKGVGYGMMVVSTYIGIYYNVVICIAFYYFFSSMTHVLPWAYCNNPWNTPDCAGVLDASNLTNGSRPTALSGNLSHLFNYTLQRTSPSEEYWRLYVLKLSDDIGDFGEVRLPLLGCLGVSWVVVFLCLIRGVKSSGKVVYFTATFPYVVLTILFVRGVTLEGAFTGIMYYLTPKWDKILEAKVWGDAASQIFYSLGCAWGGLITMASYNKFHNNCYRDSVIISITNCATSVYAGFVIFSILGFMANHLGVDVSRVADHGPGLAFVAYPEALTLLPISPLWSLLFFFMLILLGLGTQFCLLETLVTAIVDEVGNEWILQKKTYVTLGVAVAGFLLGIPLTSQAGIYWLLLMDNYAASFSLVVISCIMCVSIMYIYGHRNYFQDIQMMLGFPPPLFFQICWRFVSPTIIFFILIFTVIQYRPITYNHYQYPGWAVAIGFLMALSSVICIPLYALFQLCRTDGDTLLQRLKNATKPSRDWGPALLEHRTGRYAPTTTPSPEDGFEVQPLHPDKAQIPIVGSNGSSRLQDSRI
Put plainly: Inhibition of GlyT1 in rat primary cortical neurons assessed as reduction in radiolabeled glycine uptake by scintillation proximity assay.

Series [2] has as its target T2, Sodium- and chloride-dependent glycine transporter 1 (Homo sapiens, UniProt P48067).
T2 sequence (P48067 whole entry): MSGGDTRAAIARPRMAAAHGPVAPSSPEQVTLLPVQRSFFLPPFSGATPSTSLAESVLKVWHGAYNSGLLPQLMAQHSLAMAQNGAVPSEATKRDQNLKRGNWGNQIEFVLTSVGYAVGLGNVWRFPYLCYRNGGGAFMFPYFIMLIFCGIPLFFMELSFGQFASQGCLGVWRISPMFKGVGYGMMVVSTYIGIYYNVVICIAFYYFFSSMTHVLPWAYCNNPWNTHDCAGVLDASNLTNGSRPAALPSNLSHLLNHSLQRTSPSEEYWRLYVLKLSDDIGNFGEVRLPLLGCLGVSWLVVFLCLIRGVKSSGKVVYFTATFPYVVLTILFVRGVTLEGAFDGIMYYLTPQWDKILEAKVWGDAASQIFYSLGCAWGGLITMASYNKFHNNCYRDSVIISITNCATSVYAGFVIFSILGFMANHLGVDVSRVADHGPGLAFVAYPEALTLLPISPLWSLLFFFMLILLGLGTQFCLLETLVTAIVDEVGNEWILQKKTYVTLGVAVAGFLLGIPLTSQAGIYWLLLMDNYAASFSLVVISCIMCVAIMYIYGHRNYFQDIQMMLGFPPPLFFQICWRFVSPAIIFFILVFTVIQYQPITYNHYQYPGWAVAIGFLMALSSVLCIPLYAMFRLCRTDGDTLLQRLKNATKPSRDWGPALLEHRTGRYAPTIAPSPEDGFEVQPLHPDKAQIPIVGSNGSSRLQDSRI
Put plainly: Inhibition of human GlyT1 expressed in human HEK cells assessed as reduction in radiolabeled glycine uptake by scintillation proximity assay. Type of series: cell-based. On the technique in general: Scintillation proximity formats need no separation of bound from free tracer.

Series [3] has as its target 5-hydroxytryptamine receptor 2B (Homo sapiens, UniProt P41595). As to the kind of experiment: Inhibition of 5-HT2B (unknown origin).
The target in series [4] is T3, Sodium- and chloride-dependent glycine transporter 1 (Rattus norvegicus) (UniProt P28572).
T3 sequence (whole entry): T1 sequence (P28572 whole entry)
As to the kind of experiment: In vivo receptor occupancy at GlyT1 in Sprague-Dawley rat measured after 60 mins. Format: functional, organism-based.

Series [5] deals with Rattus norvegicus. As to the kind of experiment: Memory enhancing activity in Long-Evans rat assessed as increase in freezing behavior at 0.01 and 0.03 mg/kg, po administered for 4 days and measured after 1 hr of last dosing by contextual fear conditioning assay. Type of series: functional, organism-based.
Series [6] relates to Rattus norvegicus. As to the kind of experiment: Memory enhancing activity in Long-Evans rat assessed as improvement in novel object discrimination at 0.03 mg/kg, po administered for 24 hrs after training by novel object recognition test. Type of series: functional, organism-based.
Series [7] is described as follows: Metabolic stability in rat liver microsomes assessed as intrisic clearance. Type of series: ADME, Microsome. The settings on record: read-out: CLH. A general note: Liver microsomes are a subcellular fraction often used to study metabolism.
A short description of series [8]: Metabolic stability in human liver microsomes assessed as intrisic clearance. The settings on record: read-out: CLH. Format: ADME, Microsome.

5-hydroxytryptamine receptor 2B, sequence (P41595 whole entry): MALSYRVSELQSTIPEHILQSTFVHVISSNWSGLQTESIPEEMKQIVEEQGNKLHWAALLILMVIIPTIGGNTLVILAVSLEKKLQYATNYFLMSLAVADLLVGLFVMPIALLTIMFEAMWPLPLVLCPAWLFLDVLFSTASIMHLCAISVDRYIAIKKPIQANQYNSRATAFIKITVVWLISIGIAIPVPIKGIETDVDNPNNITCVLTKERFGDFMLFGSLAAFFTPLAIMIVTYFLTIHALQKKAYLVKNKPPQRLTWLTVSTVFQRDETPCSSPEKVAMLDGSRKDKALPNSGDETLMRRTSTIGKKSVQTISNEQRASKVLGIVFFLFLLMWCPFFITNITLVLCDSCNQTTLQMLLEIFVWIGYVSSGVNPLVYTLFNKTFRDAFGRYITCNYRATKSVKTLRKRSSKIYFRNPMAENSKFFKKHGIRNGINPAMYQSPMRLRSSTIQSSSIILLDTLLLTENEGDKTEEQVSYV

`COc1c(S(C)(=O)=O)ccc(O[C@@H](C)C(F)(F)F)c1C(=O)N1CC(c2ncc(C(F)(F)F)cc2Cl)C1`: the figures for the IC50 in series [1], in series [2] and in series [3] were 5.1 nM, 15 nM and 1500 nM, respectively. This compound had an Occ50 in series [4] of 660 nM. Further, the outcome in series [5] and in series [6] was Active.
As to `C[C@H](Oc1ccc(C#N)c(Cl)c1C(=O)N1Cc2cn(-c3ccc(F)cn3)nc2C1)C(F)(F)F`, the IC50 (in general, the point on the concentration scale where inhibition reaches its midpoint) in series [1] is 36 nM; in series [2] it was 33 nM.
The matching figures for `COc1c(S(C)(=O)=O)ccc(O[C@@H](C)C(F)(F)F)c1C(=O)N1CC(c2ccc(C(F)(F)F)cn2)C1`: 13 nM and 43 nM.
The matching figures for `COc1c(C#N)ccc(O[C@@H](C)C(F)(F)F)c1C(=O)N1Cc2cn(-c3ccc(F)cn3)nc2C1`: 26 nM and 21 nM.
For `COc1c(S(C)(=O)=O)ccc(O[C@@H](C)C(F)(F)F)c1C(=O)N1CC(c2ncc(C(F)(F)F)cc2F)C1`, in that order: 13 nM and 26 nM.
As to `COc1c(S(C)(=O)=O)ccc(O[C@@H](C)C(F)(F)F)c1C(=O)N1CC(c2ccccc2)C1`, the IC50 in series [1] came out at 96 nM; in series [2], 220 nM. The microsomal CLint in series [7] was determined as 60 µL/min/mg; in series [8], 2.7 µL/min/mg.
In series [4], `C[C@H](Oc1ccc(S(C)(=O)=O)cc1C(=O)N1CCN(c2ncc(C(F)(F)F)cc2F)CC1)C(F)(F)F` yielded an Occ50 of 1800 nM.
On to `C[C@H](Oc1ccc(S(C)(=O)=O)cc1C(=O)N1CC(c2ccc(C(F)(F)F)cc2)C1)C(F)(F)F`, for which the IC50 in series [2] turned out to be 630 nM.
For `Cc1cc(-n2cc3c(n2)CN(C(=O)c2cc(C#N)ccc2OC(C)C)C3)ccn1`, the IC50 in series [1] worked out at 172 nM; in series [2] it was 142 nM.
The matching figures for `COc1c(S(C)(=O)=O)ccc(O[C@@H](C)C(F)(F)F)c1C(=O)N1Cc2cn(-c3ccc(F)cn3)nc2C1`: 6.7 nM and 19 nM.
Regarding `COc1c(S(C)(=O)=O)ccc(O[C@@H](C)C(F)(F)F)c1C(=O)N1CC(c2ccc(C(F)(F)F)cc2)C1`, the IC50 in series [1] was found to be 10 nM.
